Assay results published in US11377442B2, “Small molecule agonists and antagonists of NR2F6 activity” (ZANDER THERAPEUTICS, INC., priority 2016, dated 2022).
Read-outs that look alike come from different tables or passages of the source. Each block holds one compound with its values, some of them ahead of it.

Tests used:
Type in all cases: cell-based
[1] = molecular target: T1, NR2F6 (Homo sapiens, UniProt P10588); experiment: NR2F6 agonist screening, Firefly signal cmpd/DMSO
T1 construct: expressed in transfected cells; also transient transfection
T1 sequence (P10588 1-404): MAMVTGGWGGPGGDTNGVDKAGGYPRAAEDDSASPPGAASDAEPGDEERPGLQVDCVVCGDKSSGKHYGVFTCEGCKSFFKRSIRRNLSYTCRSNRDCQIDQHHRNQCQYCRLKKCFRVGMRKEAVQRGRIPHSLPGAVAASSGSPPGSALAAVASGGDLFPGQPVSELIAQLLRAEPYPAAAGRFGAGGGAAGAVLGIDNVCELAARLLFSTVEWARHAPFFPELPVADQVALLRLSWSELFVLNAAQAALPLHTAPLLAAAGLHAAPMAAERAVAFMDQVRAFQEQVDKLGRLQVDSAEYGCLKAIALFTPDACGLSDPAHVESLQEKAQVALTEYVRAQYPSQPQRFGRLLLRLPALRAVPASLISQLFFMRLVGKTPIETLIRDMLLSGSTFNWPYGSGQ

[2] = tested on: Renilla; experiment: Renilla signal in NR2F6 agonist screening, cmpd/DMSO; details: Renilla, F4
[3] = tested on: HEK293 pGL4; experiment: Firefly_pGL signal, cmpd/DMSO (pGL4 control cells); details: Homo sapiens
[4] = molecular target: T2, NR2F6 LBD (Homo sapiens, UniProt P10588); experiment: NR2F6 LBD transient transfection; details: LBD
T2 construct: expressed in transfected cells
T2 sequence (P10588 165-393 limits assumed): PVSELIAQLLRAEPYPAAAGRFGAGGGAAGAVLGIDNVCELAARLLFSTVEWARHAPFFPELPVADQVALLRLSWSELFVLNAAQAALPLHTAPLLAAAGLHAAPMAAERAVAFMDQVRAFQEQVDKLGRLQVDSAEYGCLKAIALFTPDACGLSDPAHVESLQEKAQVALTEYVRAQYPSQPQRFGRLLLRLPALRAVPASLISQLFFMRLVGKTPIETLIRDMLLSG
In short: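 LBD-transfected cells treated at 40, 10, 2 and 0.5 μM (4 replicates); cytotoxicity measured in parallel, normalized to DMSO (0%) and zero signal (100%). Higher concentrations excluded where signal loss reflected toxicity.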

[5] = read-out: Renilla, F4, cmpd/DMSO (mean)
[6] = 1% FBS, read-out: Renilla, F4, 1% FBS, cmpd/DMSO (mean)
[7] = 10% FBS, read-out: Renilla, F4, 10% FBS, cmpd/DMSO (mean)
[8] = HEK293, 0.5 uM, pGL4, read-out: Firefly pGL4, cmpd/DMSO (mean)
[9] = HEK293, 2 uM, pGL4, read-out: Firefly pGL4, cmpd/DMSO (mean)
[10] = HEK293, 10 uM, pGL4, read-out: Firefly pGL4, cmpd/DMSO (mean)
[11] = HEK293, 40 uM, pGL4, read-out: Firefly pGL4, cmpd/DMSO (mean)
[12] = HEK293, pGL4, 1% FBS, 0.5 uM, read-out: Firefly, pGL4, 1% FBS, cmpd/DMSO (mean)
[13] = HEK293, pGL4, 1% FBS, 2 uM, read-out: Firefly, pGL4, 1% FBS, cmpd/DMSO (mean)
[14] = HEK293, pGL4, 1% FBS, 10 uM, read-out: Firefly, pGL4, 1% FBS, cmpd/DMSO (mean)
[15] = HEK293, pGL4, 1% FBS, 40 uM, read-out: Firefly, pGL4, 1% FBS, cmpd/DMSO (mean)
[16] = HEK293, pGL4, 10% FBS, 0.5 uM, read-out: Firefly, pGL4, 10% FBS, cmpd/DMSO (mean)
[17] = HEK293, pGL4, 10% FBS, 2 uM, read-out: Firefly, pGL4, 10% FBS, cmpd/DMSO (mean)
[18] = HEK293, pGL4, 10% FBS, 10 uM, read-out: Firefly, pGL4, 10% FBS, cmpd/DMSO (mean)
[19] = HEK293, pGL4, 10% FBS, 40 uM, read-out: Firefly, pGL4, 10% FBS, cmpd/DMSO (mean)

Firefly F4, cmpd/DMSO (mean) ([1]; 0.5 uM): 1.3
Firefly F4, cmpd/DMSO (mean) ([1]; 2 uM): 1.6
Firefly F4, cmpd/DMSO (mean) ([1]; 10 uM): 2.8
Firefly F4, cmpd/DMSO (mean) ([1]; 40 uM): 3.3
F4, Firefly/Renilla for S/B(F4) > 3 ([1]; 10% FBS, 40 uM): 3.2
Firefly, F4/pGL4 for S/B(F4) > 3 ([1]; 10% FBS, 40 uM): 2.3
Firefly, F4, 1% FBS, cmpd/DMSO (mean) ([1]; 1% FBS, 0.5 uM): 1.4
Firefly, F4, 1% FBS, cmpd/DMSO (mean) ([1]; 1% FBS, 2 uM): 1.1
Firefly, F4, 1% FBS, cmpd/DMSO (mean) ([1]; 1% FBS, 10 uM): 2.8
Firefly, F4, 1% FBS, cmpd/DMSO (mean) ([1]; 1% FBS, 40 uM): 2.5
Firefly, F4, 10% FBS, cmpd/DMSO (mean) ([1]; 10% FBS, 0.5 uM): 1.7
Firefly, F4, 10% FBS, cmpd/DMSO (mean) ([1]; 10% FBS, 2 uM): 1.5
Firefly, F4, 10% FBS, cmpd/DMSO (mean) ([1]; 10% FBS, 10 uM): 2.1
Firefly, F4, 10% FBS, cmpd/DMSO (mean) ([1]; 10% FBS, 40 uM): 5.8
Firefly LBD, cmpd/DMSO (mean) ([4]; 0.5 uM): 1.1
Firefly LBD, cmpd/DMSO (mean) ([4]; 2 uM): 1.3
Firefly LBD, cmpd/DMSO (mean) ([4]; 10 uM): 2.2
Firefly LBD, cmpd/DMSO (mean) ([4]; 40 uM): 2.5
Compound: CCC(C)N[C@H]1CS(=O)(=O)C[C@@H]1S(=O)(=O)c1ccc(C)cc1 (stereo partly shown) [Compound D113]
fold induction at 0.5 µM [2, 5]: 1.1
fold induction at 2 µM [2, 5]: 1
fold induction at 10 µM [2, 5]: 1.3
fold induction at 40 µM [2, 5]: 1.4
fold induction at 0.5 µM [2, 6]: 1.3
fold induction at 2 µM [2, 6]: 1.2
fold induction at 10 µM [2, 6]: 1.6
fold induction at 40 µM [2, 6]: 1.8
fold induction at 0.5 µM [2, 7]: 1
fold induction at 2 µM [2, 7]: 1
fold induction at 10 µM [2, 7]: 1.2
fold induction at 40 µM [2, 7]: 1.8
fold induction at 0.5 µM [3, 8]: 1.2
fold induction at 2 µM [3, 9]: 1.1
fold induction at 10 µM [3, 10]: 2.6
fold induction at 40 µM [3, 11]: 2
fold induction at 0.5 µM [3, 12]: 1
fold induction at 2 µM [3, 13]: 1.2
fold induction at 10 µM [3, 14]: 1.8
fold induction at 40 µM [3, 15]: 1.6
fold induction at 0.5 µM [3, 16]: 1.1
fold induction at 2 µM [3, 17]: 1.2
fold induction at 10 µM [3, 18]: 1.7
fold induction at 40 µM [3, 19]: 2.5

Firefly F4, cmpd/DMSO (mean) ([1]; 0.5 uM): 1.6
Firefly F4, cmpd/DMSO (mean) ([1]; 2 uM): 3.3
Firefly F4, cmpd/DMSO (mean) ([1]; 10 uM): 6.8
Firefly F4, cmpd/DMSO (mean) ([1]; 40 uM): 0.7
F4, Firefly/Renilla for S/B(F4) > 3 ([1]; 1% FBS, 2 uM): 2.3
Firefly, F4/pGL4 for S/B(F4) > 3 ([1]; 1% FBS, 2 uM): 1.3
F4, Firefly/Renilla for S/B(F4) > 3 ([1]; 10% FBS, 10 uM): 3.9
Firefly, F4/pGL4 for S/B(F4) > 3 ([1]; 10% FBS, 10 uM): 3.1
Firefly, F4, 1% FBS, cmpd/DMSO (mean) ([1]; 1% FBS, 0.5 uM): 1.4
Firefly, F4, 1% FBS, cmpd/DMSO (mean) ([1]; 1% FBS, 2 uM): 3.2
Firefly, F4, 1% FBS, cmpd/DMSO (mean) ([1]; 1% FBS, 10 uM): 2.8
Firefly, F4, 1% FBS, cmpd/DMSO (mean) ([1]; 1% FBS, 40 uM): 0.3
Firefly, F4, 10% FBS, cmpd/DMSO (mean) ([1]; 10% FBS, 0.5 uM): 1.5
Firefly, F4, 10% FBS, cmpd/DMSO (mean) ([1]; 10% FBS, 2 uM): 1.8
Firefly, F4, 10% FBS, cmpd/DMSO (mean) ([1]; 10% FBS, 10 uM): 11
Firefly, F4, 10% FBS, cmpd/DMSO (mean) ([1]; 10% FBS, 40 uM): 0.5
Activity, cmpd/DMSO ([1]; Table 31): 6.6
Firefly LBD, cmpd/DMSO (mean) ([4]; 0.5 uM): 1.2
Firefly LBD, cmpd/DMSO (mean) ([4]; 2 uM): 2.5
Firefly LBD, cmpd/DMSO (mean) ([4]; 10 uM): 3.1
Firefly LBD, cmpd/DMSO (mean) ([4]; 40 uM): 0.6
Compound: O=S1(=O)C[C@H](N2CCCC2)[C@@H](S(=O)(=O)c2ccc(Cl)cc2)C1 [Compound D122]
fold induction at 0.5 µM [2, 5]: 1.1
fold induction at 2 µM [2, 5]: 1.3
fold induction at 10 µM [2, 5]: 2.2
fold induction at 40 µM [2, 5]: 0.2
fold induction at 0.5 µM [2, 6]: 1.2
fold induction at 2 µM [2, 6]: 1.4
fold induction at 10 µM [2, 6]: 2.2
fold induction at 0.5 µM [2, 7]: 1
fold induction at 2 µM [2, 7]: 1
fold induction at 10 µM [2, 7]: 2.9
fold induction at 0.5 µM [3, 8]: 1.3
fold induction at 2 µM [3, 9]: 2.4
fold induction at 10 µM [3, 10]: 2.3
fold induction at 40 µM [3, 11]: 0.6
fold induction at 0.5 µM [3, 12]: 1.1
fold induction at 2 µM [3, 13]: 2.5
fold induction at 10 µM [3, 14]: 2.6
fold induction at 40 µM [3, 15]: 0.7
fold induction at 0.5 µM [3, 16]: 0.9
fold induction at 2 µM [3, 17]: 2.2
fold induction at 10 µM [3, 18]: 3.7
fold induction at 40 µM [3, 19]: 0.7
